Source: US8911769B2, “Orally disintegrating pharmaceutical composition comprising diclofenac” (Novartis AG, priority 2004, dated 2014)

Legend:
[1] = Non-aggregation of diclofenac free acid in dispersion (Malvern laser particle size analyzer); assay type: physicochemical
Experimental: For example, the edible film of Example 2 completely disintegrates within 15 seconds. • (b) Plasma levels of diclofenac: The plasma levels of diclofenac are measured in vivo, e.g. in pigs, at different time intervals after oral administration of the edible films. Edible films according to the invention may produce similar plasma levels of diclofenac as a commercially available tablet comprising 12.5 mg diclofenac potassium (Voltaren® Dolo) [AUC (=Area Under the Curve) is essentially the same]. Tmax may be even shorter in edible films than in Voltaren® Dolo—what is desirable in many cases. • (c) Consumer testing of the organoleptic properties of the edible films: The perception of the edible films immediately after administration is tested. An immediate softening and pleasant feeling in the mouth are realized. • (d) Taste evaluation of the edible films: The taste of the edible films is evaluated in vitro with the aid of an “electronic tongue” equipment and also in consumer tests. […] For example, the particle size of—non-micronized or micronized—diclofenac free acid is measured with the aid of a Malvern (UK) laser particle size analyzer equipment before and after processing, under different conditions of manufacture, to an edible film.

[2] = in water and ethanol/water mixtures; cited from earlier work

With `O=C(O)Cc1ccccc1Nc1c(Cl)cccc1Cl` [diclofenac free acid] as the compound, how does the “particle size distribution profile, starting material versus released from edible films” value ([1]; before and after processing to an edible film (with ethanol, without ethanol, without ethanol with homogenization), disintegrated in water) read?
The value was “essentially is no difference”.

And the aggregation in dispersion ([1]; non-micronized (mean particle size 16 micrometers) or micronized, solvents e.g. water, water/ethanol or ethanol)?
Its aggregation in dispersion is “no such aggregation does occur”.

What about the solubility [2] of the same compound?
Its solubility is “only poorly soluble”.
